Where two headings read alike, the source gives them in different places.
Key:
HBV [1] = experiment: Test of Anti-HBV Activity in Hep G2 2.2.15 cell lines; assay type: cell-based; settings: for EC50 / EC90: Hepatitis B virus, HepG2 2.2.15
Procedure: (§1) The anti-HBV activity of the compounds according to the present invention, was tested in Hep G2 2.2.15 cell lines, as using 2',3'-dideoxycytidine as a control compound.

[2] = Toxicity (CC50) in Hep G2 2.2.15 cell lines, anti-HBV test; assay type: cell-based; settings: human, hep g2 2.2.15 cells
Procedure: as §1

HBV [3] = settings: Proc. Natl. Acad. Sci. USA, 88, 8495 (1991); Biochem. Pharm., 47, 171 (1994); cited from earlier work
[4] = Hep G2 2.2.15 cell lines, anti-HBV activity, read-out: EC50
[5] = Hep G2 2.2.15 cell lines, anti-HBV activity, read-out: EC90

| SMILES | EC50 (HBV [1]) [µM] | EC90 (HBV [1]) [µM] | Sl (CC50 /EC90) (HBV [1]; ratio CC50 /EC90, Hep G2 2.2.15 cell lines) | CC50 [2] [µM] | EC50 (HBV [1]; [4]) [µM] | EC90 (HBV [1]; [5]) [µM] | Sl (CC50 /EC90) (HBV [1]; human, hep g2 2.2.15 cells) | anti-HBV activity (reported) (HBV [3]) |
| --- | --- | --- | --- | --- | --- | --- | --- | --- |
| Nc1ccn([C@H]2CC[C@@H](CO)O2)c(=O)n1 [Control compound, 2',3'-dideoxycytidine, reference compound] | 7.57 | 35 | 30.811 | 1080 |  |  |  |  |
| Nc1ccn([C@H]2C[C@](F)(CO)CO2)c(=O)n1 (relative stereo) [Compound 8, trans-2-(Cytosin-1-yl)-4-fluoro-4-hydroxymethyltetrahydrofuran] |  |  |  | 1500 | 0.08 | 0.522 | 2,874 |  |
| Nc1ccn([C@@H]2C[C@](F)(CO)CO2)c(=O)n1 (relative stereo) [Compound 7, cis-2-(Cytosin-1-yl)-4-fluoro-4-hydroxymethyltetrahydrofuran] |  |  |  | 1550 | 0.011 | 0.143 | 10,811 |  |
| O=c1[nH]c(=O)n([C@H]2C[C@](F)(CO)CO2)cc1I (relative stereo) [Compound 16, trans-2-(5-iodouracil-1-yl)-4-fluoro-4-hydroxymethyltetrahydrofuran] |  |  |  | 451 | 0.8 | 5.3 | 85 |  |
| Nc1ccn([C@H]2CS[C@@H](CO)O2)c(=O)n1 [2',3'-dideoxy-3'-thiacytidine] |  |  |  |  |  |  |  | have anti-HBV activity |
| O=c1[nH]c(=O)n([C@@H]2C[C@](F)(CO)CO2)cc1I (relative stereo) [Compound 15, cis-2-(5-Iodouracil-1-yl)-4-fluoro-4-hydroxymethyltetrahydrofuran] |  |  |  | 2200 | 0.6 | 4.4 | 501 |  |
| Nc1nc(=O)n([C@@H]2CC[C@H](CO)O2)cc1F [2', 3'-dideoxy-β-L-5-fluorocytidine] |  |  |  |  |  |  |  | have anti-HBV activity |
| Nc1nc(=O)n([C@H]2CS[C@@H](CO)O2)cc1F [5-fluoro-2', 3'-dideoxy-3'-thiacytidine] |  |  |  |  |  |  |  | have anti-HBV activity |
| Cc1cn([C@H]2C[C@](F)(CO)CO2)c(=O)[nH]c1=O (relative stereo) [Compound 6, trans-2-(Thymin-1-yl)-4-fluoro-4-hydroxymethyltetrahydrofuran] |  |  |  | 2320 | 0.2 | 1 | 2,321 |  |
| Cc1cn([C@@H]2C[C@](F)(CO)CO2)c(=O)[nH]c1=O (relative stereo) [Compound 5, cis-2-(Thymin-1-yl)-4-fluoro-4-hydroxymethyltetrahydrofuran] |  |  |  | 472 | 0.1 | 0.8 | 590 |  |
| Nc1nc(=O)n([C@@H]2C[C@](F)(CO)CO2)cc1F (relative stereo) [Compound 9, cis-2-(5-Fluorocytosin-1-yl)-4-fluoro-4-hydroxymethyltetrahydrofuran] |  |  |  | 2230 | 0.8 | 0.7 | 319 |  |
| Nc1ccn([C@@H]2CC[C@H](CO)O2)c(=O)n1 [2', 3'-dideoxy-β-L-cytidine] |  |  |  |  |  |  |  | have anti-HBV activity |
| Nc1nc(=O)n([C@H]2C[C@](F)(CO)CO2)cc1F (relative stereo) [Compound 10, trans-2-(5-Fluorocytosin-1-yl)-4-fluoro-4-hydroxymethyltetrahydrofuran] |  |  |  | 955 | 0.061 | 0.835 | 1,444 |  |

— patent US6072051A, “Nucleoside derivatives and process for preparing the same” (priority 1995, dated 2000)
